Source: patent US11590156B2, “RNAi agents for hepatitis B virus infection” (Arrowhead Pharmaceuticals, Inc., priority 2016, dated 2023)

What was measured:
[1] = system: HBV genotype C; serum HBsAg; experiment: Serum HBsAg levels in HBV-infected humanized FRG model mice; type: in vivo, FRG mice transplanted with human hepatocytes; conditions: mouse A-1; PBS (no RNAi agent); oral daily gavage 0.01 mg/kg Entecavir from day 1; Day 8
Experimental: ii) Serum Hepatitis B surface antigen (HBsAg) levels: Serum was collected and diluted 10 to 8000-fold in PBS containing 5% nonfat dry milk. Secondary HBsAg standards diluted in the nonfat milk solution were prepared from serum of ICR mice (Harlan Sprague Dawley) that had been transfected with 10 μg HBsAg-expressing plasmid pRc/CMV-HBs (Aldevron, Fargo, N. Dak.). HBsAg levels were determined with a GS HBsAg EIA 3.0 kit (Bio-Rad Laboratories, Inc., Redmond, Wash.) as described by the manufacturer. Recombinant HBsAg protein, ayw subtype, also diluted in nonfat milk in PBS, was used as a primary standard (Aldevron). […]
Serum was collected on day 8, day 15, day 22, day 29, day 36, and day 40 and serum Hepatitis B surface antigen (HBsAg) levels were determined pursuant to the procedure set forth in Example 2, above.

[2] = system: HBV genotype C; serum HBV DNA; experiment: Serum HBV DNA levels in HBV-infected humanized FRG model mice; type: in vivo, FRG mice transplanted with human hepatocytes; conditions: for Serum HBV DNA levels normalized to the average of pre-treatment day −10 and day −3: PBS (no RNAi agent), oral daily gavage 0.01 mg/kg Entecavir from day 1
Experimental: iv) Serum HBV DNA levels: Equal volumes of serum from mice in a group or subgroup were pooled to a final volume of 100 μL. DNA was isolated from serum samples using the QIAamp MinElute Virus Spin Kit (Qiagen, Valencia, Calif.) following the manufacturer's instructions. Sterile 0.9% saline was added to each sample to a final volume of 200 μL. Serum samples were added to tubes containing buffer and protease. Carrier RNA was added to aid in the isolation of small amounts of DNA. […] After incubating 15 min at 56° C., nucleic acids were precipitated from the lysates with ethanol and the entire solution applied to a column. After washing, the samples were eluted into a volume of 50 μL Buffer AVE.
The number of copies of HBV genomes in DNA isolated from the pHBV mouse model serum was determined by qPCR. Plasmid pSEAP-HBV353-777, encoding a short segment of the HBV genome within the S gene (bases 353-777 of GenBank accession #V01460), was used to create a six log standard curve. Samples with recovery of DNA below 2 standard deviations from the average, based on detection of pHCR/UbC-SEAP were omitted. TaqMan chemistry-based primers and probes with fluor/ZEN/IBFQ are utilized.
qPCR assays were performed on a 7500 Fast or StepOne Plus Real-Time PCR system (Life Technologies). For evaluation of HBV DNA in serum, DNA was isolated from singlet or duplicate purification steps from pooled group serum samples. Quantitations of HBV DNA and recovery control plasmid were determined by qPCR reactions performed in triplicate. The probes to quantitate HBV and pHCR/UbC-SEAP were included in each reaction.
For this study, Male FRG® (genotype Fah −/−/Rag2−/−/Il2rg −/− triple knockout mice on a C57BL/6 background (Yecuris) were transplanted with human hepatocytes when they were 1-2 months old. The human hepatocytes were allowed to repopulate the liver for approximately 6 months with periodic NTBC treatment to discourage growth of mouse hepatocytes. At 9 months of age the mice were given an intravenous inoculation of 4×10^8 genomes/kg HBV genotype C, which infected the human hepatocytes. After 2-3 months, serum HBV DNA levels reached a plateau indicating the human hepatocytes were maximally infected (mouse hepatocytes cannot be infected by HBV). Mice were one year old at the start of treatment with HBV RNAi agents, thus nearing the end of their life span.
Pre-treatment serum samples were taken on day −10 and day −3. Beginning on day 1, each mouse was administered an oral daily gavage with 0.01 mg/kg Entecavir dissolved in water to inhibit HBV replication. Daily dosing of Entecavir continued until the day mice were euthanized. Entecavir administration was expected to reduce serum HBV DNA in chronically infected human patients, but not reduce HBsAg.
Each mouse was also given a subcutaneous administration of 100 μl per 20 grams body weight containing the amount of HBV RNAi agent(s) formulated in phosphate buffered saline, or an equal volume of phosphate buffered saline without an HBV RNAi agent, on day 1 and on day 29 (if still alive on day 29), pursuant to the schedule as set forth in Table 47, directly above. […] The injections were performed between the skin and muscle (i.e. subcutaneous injections) into the loose skin over the neck and shoulder area.
Additionally, serum HBV DNA levels were determined from serum samples collected on days −10, −3, 8, 15, 22, 29, 36, and 40, pursuant to the procedure set forth in Example 2, above.

## C=C1[C@H](CO)[C@@H](O)C[C@@H]1n1cnc2c(=O)[nH]c(N)nc21 [Entecavir]
[1]
  Average HBsAg levels normalized to pre-treatment (day −3): 0.830
[2]; Example 18, 0.01 mg/kg Entecavir oral daily gavage
  viral replication (serum HBV DNA): reduced viral replication in both the absence and presence of HBV RNAi agents
[2]; mouse A-1, Day 8
  Serum HBV DNA levels normalized to the average of pre-treatment day −10 and day −3: 0.072
[2]; mouse A-1, Day 15
  Serum HBV DNA levels normalized to the average of pre-treatment day −10 and day −3: 0.038
[2]; mouse A-1, Day 22
  Serum HBV DNA levels normalized to the average of pre-treatment day −10 and day −3: 0.015
[2]; mouse A-1, Day 29
  Serum HBV DNA levels normalized to the average of pre-treatment day −10 and day −3: 0.027
[2]; mouse A-1, Day 36
  Serum HBV DNA levels normalized to the average of pre-treatment day −10 and day −3: 0.060
[2]; mouse A-2, Day 8
  Serum HBV DNA levels normalized to the average of pre-treatment day −10 and day −3: 0.130
[2]; mouse A-2, Day 15
  Serum HBV DNA levels normalized to the average of pre-treatment day −10 and day −3: 0.075
